Reference: PMC6029275, “Cytotoxic properties of the anthraquinone derivatives isolated from the roots of Rubia philippinensis” (BMC Complementary and Alternative Medicine, 2018)

How the values were obtained:
Assay type in all cases: cell-based
[1] = system: MDA-MB-231 (human breast adenocarcinoma); assay: MTT cytotoxicity assay, MDA-MB-231; conditions: for IC50: MTT, 24 h treatment, mean ± SD; for Selectivity index MDA-MB-231: ratio of IC50 on MDCK cells to IC50 in MDA-MB-231
Protocol: (§1) The potential cytotoxicity of the isolated anthraquinone derivatives was studied against various cancer cell lines, including SK-MEL-5 (human melanoma), B16F10 (murine melanoma) MCF7 (human breast adenocarcinoma), and MDA-MB-231 (human breast adenocarcinoma) and the normal cell line MDCK (normal kidney epithelial) using the MTT assay. All cell lines were cultured in DMEM medium supplemented with 10% foetal bovine serum (FBS) and streptomycin–penicillin (100 μg/ml each; Hyclone) in a 5% CO2 humidified incubator. An MTT assay was employed to determine the percentage of the viability of various cancer cells as well as MDCK cells. All cells were first cultured in 96-well plates (1 × 10^5 cells/mL for all cancerous cells and 5 × 10^5 cells/mL for MDCK cells) for 24 h, and treated with indicated concentration of isolated compounds (6.25–100 μM for cancerous cells and 6.25–400 μM for MDCK cells). Various dilutions of stock culture were made in the culture medium to get the final concentration of the sample with a 0.1% of DMSO concentration, including the control. After 24 h incubation, MTT reagent was added to each well and the plate was incubated at 37 °C for 1 h. After removing the medium, the plate was washed twice with PBS (pH 7.4). The intracellular insoluble formazan was dissolved in 100% DMSO. A microplate reader was used to measure the absorbance of each cell line at 570 nm, and the percentage of cell viability was calculated. The absorbance value for the average of wells of cells treated with each test sample concentration was expressed as a percentage of this control and the IC50 values for each sample on each cell line were calculated. The anti-cancer drug oxaloplatin was used as a positive control.

[2] = system: MDCK (normal kidney epithelial cells); assay: MTT cytotoxicity assay, normal cell line MDCK; conditions: 24 h treatment, mean ± SD
Protocol: as §1

[3] = system: B16F10 (murine melanoma); assay: MTT cytotoxicity assay, B16F10; conditions: for IC50: MTT, 24 h treatment, mean ± SD; for Selectivity index B16F10 (column head IC50 (μM)): ratio of IC50 on MDCK cells to IC50 in B16F10
Protocol: as §1

[4] = system: MCF7 (human breast adenocarcinoma); assay: MTT cytotoxicity assay, MCF7; conditions: for IC50: MTT, 24 h treatment, mean ± SD; for Selectivity index MCF7 (column head IC50 (μM)): ratio of IC50 on MDCK cells to IC50 in MCF7
Protocol: as §1

[5] = system: SK-MEL-5 (human melanoma); assay: MTT cytotoxicity assay, SK-MEL-5; conditions: for IC50: MTT, 24 h treatment, mean ± SD; for Selectivity index SK-MEL-5 (column head IC50 (μM)): ratio of IC50 on MDCK cells to IC50 in SK-MEL-5
Protocol: as §1

Structure (SMILES)	IC50 [1] [µM]	IC50 [2] [µM]	IC50 [3] [µM]	IC50 [4] [µM]	IC50 [5] [µM]	IC50 ([1]; Homo sapiens, MDA-MB-231) [µM]	Selectivity index MDA-MB-231 [1]	IC50 ([2]; Canis lupus familiaris, MDCK) [µM]	IC50 ([3]; Mus musculus, B16-F10) [µM]	Selectivity index B16F10 (column head IC50 (μM)) [3]	IC50 ([4]; Homo sapiens, MCF7) [µM]	Selectivity index MCF7 (column head IC50 (μM)) [4]	IC50 ([5]; Homo sapiens, SK-MEL-5) [µM]	Selectivity index SK-MEL-5 (column head IC50 (μM)) [5]
O=C1[O][Pt]2([NH][C@@H]3CCCC[C@H]3[NH]2)[O]C1=O [Oxaloplatin, oxaloplatin, reference compound]	7.95 ± 1.92	24 ± 1.04	10.5 ± 0.92	8.59 ± 1.22	14.2 ± 1.02	–	–	–	–	–	–	–	–	–
Cc1c(O)cc2c(c1O)C(=O)c1ccc(O)cc1C2=O [Compound 2, 2-methyl-1,3,6-trihydroxy-9,10-anthraquinone]	–	–	–	–	–	59.22 ± 0.4	2.85	168.8 ± 0.61	77.88 ± 0.34	2.17	80 ± 1.14	2.11	46.8 ± 1.39	3.61
O=C1c2ccccc2C(=O)c2c(O)cc(O)cc21 [Compound 4, xanthopurpurin]	–	–	–	–	–	14.7 ± 1.45	–	67.9 ± 1.02	23.7 ± 1.71	–	15.8 ± 1	–	21.4 ± 0.99	–
O=C1c2ccccc2C(=O)c2c1ccc(O)c2O [Compound 3, alizarin]	–	–	–	–	–	48.64 ± 0.33	–	199.3 ± 1.88	98.8 ± 2.1	–	49.2 ± 0.85	–	53.08 ± 0.3	–
COCc1c(O)cc2c(c1O)C(=O)c1ccccc1C2=O [Compound 5, lucidin-ω-methyl ether]	–	–	–	–	–	13 ± 0.33	6.06	79.01 ± 0.03	29.5 ± 2.61	2.68	24.1 ± 1.06	3.28	42.8 ± 1.32	1.85
CC(=O)OC[C@H]1O[C@@H](Oc2cc3c(c(O)c2C)C(=O)c2ccc(O)cc2C3=O)[C@H](O[C@H]2O[C@@H](C)[C@H](O)[C@@H](O)[C@H]2O)[C@@H](O)[C@@H]1O [Compound 1, 2-methyl-1,3,6-trihydroxy-9,10-anthraquinone-3-O-(6′-O-acetyl)-α-rhamnosyl(1 → 2)-β-glucoside]	–	–	–	–	–	49.4 ± 0.78	3.89	192.3 ± 0.49	48.68 ± 0.1	3.95	65.5 ± 1.1	2.94	91 ± 1.88	2.11
